Test results from US20250289837A1, “MITOCHONDRIOTROPIC HETEROARYL BENZAMIDE POTASSIUM CHANNEL KV1.3 INHIBITORS” (UNIVERZA V LJUBLJANI, priority 2022, published 2025).

How the values were obtained:
[1] = tested on: pancreatic cancer cell line Colo 357; experiment: Cytotoxicity in conventional 2D cultures, Cytotox green, Incucyte live cell imaging; assay type: cell-based; settings: 24 hours of treatment, FIG. 1
Method: FIG. 1. Cytotoxicity of the indicated compounds. Cells plated on 96-well plates were incubated in the presence of 50 μM of the indicated compounds and fluorescence of the dead-cell marker Cytotox green was monitored over time. In the Figure, fluorescence values after 24 h are reported normalized to the value obtained in the presence of DMSO. […] The symbols indicate biological replicates (with three technical replicates each).
(§1) To test the activity of the compounds on biological systems, we chose the pancreatic cancer cell line Colo 357, which expresses Kv1.3 and is sensitive to cell-permeant Kv1.3 inhibitors (Zaccagnino et al., Oncotarget 8, 38276-38293, 2017). Growth, cell viability and apoptosis were all determined by high content imaging in a Incucyte (Sartorius) live cell imaging device. Images were taken every hour for several days after addition of the compounds dissolved in DMSO (time 0) and the corresponding indicators, CytotoxGreen or CytotoxRed for cytotoxicity and the green Caspase 3/7 activity reporter for apoptosis.
The first screening for cytotoxicity was performed on conventional 2D cultures (FIG. 1).

Colo 357 tumor spheroids [2] = experiment: Apoptosis in tumor spheroids (3D culture), caspase 3/7 reporter; assay type: cell-based, human; settings: 25 μM, FIG. 6
Method: FIG. 4. Levels of apoptosis observed in the presence of the indicated compounds during 48 h of treatment. Images were acquired every hour. Apoptosis was measured as activation of the executor caspases 3/7, using a fluorescent indicator. Mean±SEM, three replicates.
FIG. 5. Levels of apoptosis observed in the presence of the indicated compounds over time at two different concentrations (the curves for control and 5 μM are the same as in FIG. 4). Apoptosis was measured as activation of the executor caspases 3/7, using a fluorescent indicator. The open symbols in orange represent 5 μM, solid symbols indicate 25 μM.
FIG. 6. Comparison of the time course of the induction of apoptosis (orange) and of cell death (blue) in the presence of 25 μM compound 8. […]
To test the activity of the compounds on biological systems, we chose the pancreatic cancer cell line Colo 357, which expresses Kv1.3 and is sensitive to cell-permeant Kv1.3 inhibitors (Zaccagnino et al., Oncotarget 8, 38276-38293, 2017). Growth, cell viability and apoptosis were all determined by high content imaging in a Incucyte (Sartorius) live cell imaging device. […]
Cell death in 3D culture was also attributable to induction of apoptosis. […] The fluorescence of the caspase 3/7 reporter was detectable soon after addition of the treatment and was markedly more intense than the values measured in the control treatment (DMSO).

Colo 357 tumor spheroids [3] = experiment: Cytotoxicity on tumor spheroids (3-D cultures), Cytotox green; assay type: cell-based, human; settings: concentrations as low as 5 μM, 48 h treatment, FIG. 3
Method: FIG. 3. Cytotoxicity of the indicated compounds on tumor spheroids. Fluorescence of the dead-cell marker Cytotox green was monitored over time. In the Figure, fluorescence values after 48 h in the presence of the indicated concentration of the compound are reported normalized to the value obtained in the presence of DMSO. The symbols indicate biological replicates (with three technical replicates each).
as §1
To obtain information on the effect of the compounds in a model more similar to the situation in vivo, the effects of 2 and 8 were also studied in tumor spheroids. […] Cytotoxicity was determined as in the conventional 2D cultures but after 48 h treatment instead of 24 h, because the effects needed longer time to develop.

[4] = tested on: pancreatic cancer cell line Colo 357; experiment: Apoptosis in 2D culture, caspase 3/7 activity reporter; assay type: cell-based, human; settings: 24 h incubation, FIG. 2; for Apoptosis induction (caspases 3/7 activation): already at 5 μM
Method: FIG. 2. Levels of apoptosis observed in the presence of the indicated compounds after 24 hours incubation. Apoptosis was measured as activation of the executor caspases 3/7, using a fluorescent indicator. The values were normalized against the apoptosis level observed in the presence of the solvent (DMSO). The symbols indicate biological replicates (with three technical replicates each).
as §1
The toxic effect of both compounds was induced through apoptosis, as expected from mitoKv1.3 inhibitors Urbani, A., et al., Front Cell Dev Biol 8, 620081, 2021). FIG. 2 represents apoptosis induction after 24 h incubation in the presence of compound 2 and 8 at the indicated concentrations.

[5] = tested on: HEK293 and K562 cells, and T and B cells from healthy subjects; settings: cited from earlier work
[6] = tested on: human SAOS2, mouse B16F10 melanoma, and human B-CLL; settings: cited from earlier work
KV1.3 = settings: cited from earlier work
[7] = tested on: pancreatic ductal adenocarcinoma (PDAC) cells; settings: cited from earlier work
[8] = tested on: orthotopic melanoma B16F10; settings: cited from earlier work; for B16F10 tumor volume: orthotopic mouse B16F10 melanoma model
[9] = tested on: orthotopic PDAC xenograft; settings: SCID beige mouse; cited from earlier work
[10] = tested on: KV1.1, KV1.2, KV1.5 and KV3.1; settings: cited from earlier work
cancer cells = settings: in vitro and in vivo studies; cited from earlier work
[11] = tested on: human pancreatic Colo357 tumors; settings: mice; cited from earlier work
[12] = tested on: Jurkat leukemia T cells, mouse melanoma B16F10 cells, human PDAC cells (Bx-PC3, PANC-1, As-PC1, CAPAN-1); settings: B16F10, Bx-PC3, PANC-1, As-PC1, CAPAN-1 cells; cited from earlier work
KV1.5 = KV1.5 (Homo sapiens, UniProt P22460); settings: cited from earlier work
[13] = cited from earlier work

COc1ccccc1C(=O)NCC1(c2ccsc2)CCC(OC(=O)NCCCC[P+](c2ccccc2)(c2ccccc2)c2ccccc2)CC1.[I-] [Example 8, (4-(((((1S,4S)-4-((2-Methoxybenzamido)methyl)-4-(thiophen-3-yl)cyclohexyl)oxy)carbonyl)amino)butyl)triphenylphosphonium iodide]
Cell death (cytotoxicity screening) [1]: most intense effect | Time course of apoptosis compared with cytotoxicity in spheroids (Colo 357 tumor spheroids [2]): initiation of the decline in apoptosis signal corresponds to the start of the increase in the number of dead cells | Cytotoxicity in tumor spheroids (Colo 357 tumor spheroids [3]): significant levels of cytotoxicity | Dose dependence of the intensity of apoptosis induction [4]: increased in a dose-dependent manner | Apoptosis induction (caspases 3/7 activation) [4]: strong increase in apoptotic cells

COc1ccccc1C(=O)NC[C@]1(c2ccsc2)CC[C@H](OC(=O)NCCC[P+](c2ccccc2)(c2ccccc2)c2ccccc2)CC1.[I-] [Example 2, (3-(((((1S,4S)-4-((2-Methoxybenzamido)methyl)-4-(thiophen-3-yl)cyclohexyl)oxy)carbonyl)amino)propyl)triphenylphosphonium iodide]
Cell death (cytotoxicity screening) [1]: most intense effect | Cytotoxicity in tumor spheroids (Colo 357 tumor spheroids [3]): significant levels of cytotoxicity | Dose dependence of the intensity of apoptosis induction [4]: increased in a dose-dependent manner | Apoptosis induction (caspases 3/7 activation) [4]: strong increase in apoptotic cells

O=c1ccc2c(OCCCCc3ccccc3)c3ccoc3cc2o1 [Psora-4, 4-(4-Phenylbutoxy)-7H-furo[3,2-g][1]benzopyran-7-one]
Effects on healthy cells [5]: did not show similar effects | Apoptosis in cancer cells [6]: induced apoptosis | IC50 (KV1.3): […]

CC(C)N=c1cc2n(-c3ccc(Cl)cc3)c3ccccc3nc-2cc1Nc1ccc(Cl)cc1 [clofazimine, N,5-bis(4-chlorophenyl)-3-propan-2-yliminophenazin-2-amine]
Apoptosis in PDAC cells [7]: induced apoptosis | Effects on healthy cells [5]: did not show similar effects | Apoptosis in cancer cells [6]: induced apoptosis | Reduction of tumor size ([8]; orthotopic melanoma B16F10 line, mouse): 90% | Primary tumor weight [9]: significantly reduced | IC50 (KV1.3): 300 nM | Selectivity over KV1.1, KV1.2, KV1.5 and KV3.1 [10]: tenfold

O=c1ccc2c(OCCCCOc3ccc(CCC[P+](c4ccccc4)(c4ccccc4)c4ccccc4)cc3)c3ccoc3cc2o1.[I-] [PAPTP, (3-(4-(4-((7-oxo-7H-furo[3,2-g]chromen-4-yl)oxy)butoxy)phenyl)propyl)triphenylphosphonium iodide]
Effectiveness compared with the parent PAP-1 (cancer cells): much more effective than the parent PAP-1 | Colo357 tumors [11]: significant reductions | Cell death [12]: induced cell death | Tumor volume reduction ([8]; co-applied with cisplatin): more than 90% | B16F10 tumor volume [8]: greatly reduce

O=c1ccc2c(OCCCCOc3ccccc3)c3ccoc3cc2o1 [PAP-1, 4-(4-phenoxybutoxy)-7H-furo[3,2-g]chromen-7-one]
Effects on healthy cells [5]: did not show similar effects | Apoptosis in cancer cells [6]: induced apoptosis | Selectivity over Kv1.5 (KV1.5): […] | IC50 (KV1.3): […]

O=C(OCCC[P+](c1ccccc1)(c1ccccc1)c1ccccc1)Oc1ccc(OCCCCOc2c3ccoc3cc3oc(=O)ccc23)cc1.[I-] [PCTP, (3-(((4-(4-((7-oxo-7H-furo[3,2-g]chromen-4-yl)oxy)butoxy)phenoxy)carbonyl)oxy)propyl)triphenylphosphonium iodide]
Effectiveness compared with the parent PAP-1 (cancer cells): much more effective than the parent PAP-1 | Cell death [12]: induced cell death

O=C(NCCC[P+](c1ccccc1)(c1ccccc1)c1ccccc1)Oc1ccc(OCCCCOc2c3ccoc3cc3oc(=O)ccc23)cc1.[I-] [PCARBTP, (3-(((4-(4-((7-oxo-7H-furo[3,2-g]chromen-4-yl)oxy)butoxy)phenoxy)carbonyl)amino)propyl)triphenylphosphonium iodide]
Effectiveness compared with the parent PAP-1 (cancer cells): much more effective than the parent PAP-1 | Colo357 tumors [11]: significant reductions | Cell death [12]: induced cell death | B16F10 tumor volume [8]: greatly reduce | Hydrolysis in culture medium ([13]; Dulbecco's modified Eagle medium): slow hydrolysis | Hydrolysis in mouse blood ([13]; physiological conditions, mouse blood): hydrolyzed to PAPOH
